This passage reports IC50 and EC50 results from patent US9365541B2, “Compounds for use in the treatment of parasitic diseases” (IRBM—SCIENCE PARK S.P.A., priority 2012, dated 2016).

By IC50 is commonly meant the concentration that gives 50% inhibition. Usually EC50 stands for the concentration giving half of the maximal effect. Low readings indicate an effect from little substance, high ones a need for much substance.

One experiment addresses T1, human HDAC1 (Homo sapiens, UniProt Q13547).
T1 construct: made in house; host or cells: HeLa (ATCC CCL-2), mammalian cells
Briefly: Homo sapiens HDAC1 inhibition assay (Fluor-de-Lys, enzymatic). The format is biochemical. The note with it: human HDAC enzymatic assay; read-out: hHDAC IC50. On the procedure: Biology Homo sapiens HDAC1 Inhibition Assay Overview:
The aim of the assay is to evaluate the inhibition of the deacetylase activity of human HDAC1. To such goal an acetylated substrate is added to the enzyme mix; the resulting enzymatic product is converted to a fluorescent molecule by the addition the enzyme trypsine (developer solution). Fluorescence intensity is inversely proportional to the rate of inhibition of the enzyme (as indicated in the material section below).
Reagents of the HDAC Fluorescent Activity Assay are purchased from Enzo Life Sciences (http://www.enzolifesciences.com/BML-AK500/fluor-de-lys-hdac-fluorometric-activity-assay-kit/) and feature the Fluor-de-Lys™ Substrate/Developer System.
c) Trichostatin A (TSA) Stock
TSA (Sigma-Aldrich, T8552) is provided as a 10 mM stock solution in 100% dimethylsulfoxide (DMSO).
Diluted Substrate Solution
The final concentration in the assay is 20 μM.
Diluted Developer Solution
2 μM [final] TSA to this solution increases its ability to stop the reaction.
The HDAC1 enzyme is diluted in assay buffer prior to each use from a fresh aliquot of enzyme.
The final concentration in the assay is 1-2 nM.
Test compounds should be prepared in 100% DMSO and transferred to the assay by a nano volume dispenser to reach the appropriate concentration and the appropriate DMSO concentration (0.25%) in the reaction.

The test system of experiment [1] is Plasmodium falciparum 3D7. In words: P. falciparum growth inhibition assay (Pf-LDH). The experiment is classed as cell-based. The note with it: Plasmodium falciparum, Erythrocyte; P. falciparum 3D7 infected erythrocytes, 72 h incubation, PfLDH readout. Here is the method:
Basic culture of Plasmodium falciparum 3D7 parasites (Malaria Research and Reference Reagent Resource Center (MR4), MR4 Number: MRA-102).
Starting with a culture with a parasitemia of about 10% (and 5% hematocrit), 0.5 ml of the culture is placed in a fresh 100 mm petri dish with 0.95 ml of fresh erythrocytes (50% hematocrit) and 8.55 ml of culture medium, giving a new starting parasitemia of 0.5%. The petri dish is then incubated at 37° C. in a humidified gas-tight plastic box flushed with a gas mixture consisting of 93% N2, 4% CO2, and 3% O2. The culture medium is changed daily. The supernatant is removed by gently tipping the dish without disturbing the settled cells and aspirating the medium with a Pasteur pipette connected to a vacuum pump. A small amount of the concentrated cells is taken to prepare a blood smear for determination of the parasitemia. Normally, the cultures are split twice a week. If the parasites are growing very slowly then fresh erythrocytes are added to the culture no later than after 7 days. The cultures are then split 1:2 if the parasitemia is lower than 0.5%. To avoid the necessity of daily medium change on weekends, a culture with a 2.5% hematocrit and 0.1-0.2% parasitemia is set up and can be left for 3 days without medium change.
Standard medium consists of RPMI 1640, supplemented with 25 mM HEPES, 24 mM NaHCO3, 0.36 mM hypoxanthine, 100 μg/ml Neomycin, 5 g/1 Albumax® II, and washed human red blood cells (rbcs) A+.
P. falciparum Growth Inhibition Assay (Pf-LDH)
Compounds of the invention were assessed for in vitro antimalarial activity against a cloroquine sensitive (3D7) strain of the malaria parasite Plasmodium falciparum, using a lactate dehydrogenase (PfLDH) assay.
EC50 Determination by Pf-LDH Assay
384 plates (where compounds to be tested are dispensed) with 25 μl of parasite inoculum (parasitemia: 0.25%, hematocrit: 2%) are incubated at 37° C. in an atmosphere of 4% CO2, 3% O2, 93% N2. After 72 h of incubation, plates are frozen at −70° C. overnight and thawed at room temperature for at least 4 h. To evaluate PfLDH activity, 70 μl of freshly made reaction mix (143 mM sodium L-lactate, 143 μM 3-acetyl pyridine adenine dinucleotide (APAD), 178.75 μM Nitro Blue tetrazolium chloride (NBT), 286 μg/ml diaphorase (2.83 U/ml), 0.7% Tween 20, 100 mM Tris-HCl pH 8.0) is dispensed using a Multidrop Combi dispenser. Plates are shaken to ensure mixing and absorbance at 650 nm is monitored in a plate reader after 10 min of incubation at room temperature.
Negative controls (0% Effect) are produced by addition of DMSO to the proper wells.
Positive controls (100% Effect) are produced by addition of 150 nM Artemisinin (Sigma-Aldrich, 361593)
After result normalization using positive and negative controls, compound potency is determined by fitting the following equation: % inh=Ymin+(Ymax−Ymin)/(1+(X/EC50)^slope)) Where: • Ymin=minimum percentage effect • Ymax=maximum percentage effect • EC50=the concentration of the compound at which 50% effect is reached • Slope=the slope of the curve calculated at the EC50 Histone Hyperacetylation and Immunodetection of Altered Histone Modifications Assay

T1 sequence (Q13547 whole entry): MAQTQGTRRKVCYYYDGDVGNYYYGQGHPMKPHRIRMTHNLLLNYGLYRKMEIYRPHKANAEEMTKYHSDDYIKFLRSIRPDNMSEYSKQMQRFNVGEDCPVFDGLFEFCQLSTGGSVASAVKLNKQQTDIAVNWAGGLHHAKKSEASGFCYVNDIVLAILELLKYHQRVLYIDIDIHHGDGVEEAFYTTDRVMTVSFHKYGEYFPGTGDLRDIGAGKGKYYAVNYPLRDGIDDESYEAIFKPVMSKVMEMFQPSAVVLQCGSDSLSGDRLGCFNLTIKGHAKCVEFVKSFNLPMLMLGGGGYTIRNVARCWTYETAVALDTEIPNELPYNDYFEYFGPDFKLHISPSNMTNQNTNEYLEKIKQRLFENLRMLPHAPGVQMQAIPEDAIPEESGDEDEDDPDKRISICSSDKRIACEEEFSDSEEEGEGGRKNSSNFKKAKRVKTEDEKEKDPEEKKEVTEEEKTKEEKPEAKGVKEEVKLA

On to `CNC(=O)CCCCC[C@H](NC(=O)c1ccc(N2CC(=O)NC2=O)cc1)c1ncc(-c2ccc3ccccc3c2)[nH]1` [Entry 41, (S)-4-(2,4-dioxoimidazolidin-1-yl)-N-(7-(methylamino)-1-(5-(naphthalen-2-yl)-1H-imidazol-2-yl)-7-oxo-heptyl)benzamide], for which the IC50 at human HDAC1 lay within 1 to 5 µM. In experiment [1], this compound came in with an EC50 of less than 1 µM.
Consider `CNC(=O)CCCCC[C@H](NC(=O)c1cccc(-n2nc(C)cc2C)c1)c1ncc(-c2ccc3ccccc3c2)[nH]1` [Entry 42, (S)-3-(3,5-dimethyl-1H-pyrazol-1-yl)-N-(7-(methylamino)-1-(5-(naphthalen-2-yl)-1H-imidazol-2-yl)-7-oxo-heptyl)benzamide], for which the IC50 at human HDAC1 fell in the range of 1 to 5 µM. In addition, the EC50 in experiment [1] was in the range of 1 to 5 µM.
For `CNC(=O)CCCCC[C@H](NC(=O)c1nc2ncccn2n1)c1ncc(-c2ccc3ccccc3c2)[nH]1` [Entry 43, (S)-N-(7-(methylamino)-1-(5-(naphthalen-2-yl)-1H-imidazol-2-yl)-7-oxoheptyl)-[1,2,4]triazolo[1,5-a]pyrimidine-2-carboxamide], at human HDAC1, the IC50 was 1 to 5 µM. This compound yielded an EC50 in experiment [1] greater than 5 µM.
Turning to `CNC(=O)CCCCC[C@H](NC(=O)Cn1cnc2ccccc21)c1ncc(-c2ccc3ccccc3c2)[nH]1` [Entry 44, (S)-7-(2-(1H-benzo[d]imidazol-1-yl)acetamido)-N-methyl-7-(5-(naphthalen-2-yl)-1H-imidazol-2-yl)heptanamide], the IC50 on human HDAC1 is less than 1 µM. In experiment [1], this compound registered an EC50 of 1 to 5 µM.
In the case of `CNC(=O)CCCCC[C@H](NC(=O)c1cnsn1)c1ncc(-c2ccc3ccccc3c2)[nH]1` [Entry 45, (S)-N-(7-(methylamino)-1-(5-(naphthalen-2-yl)-1H-imidazol-2-yl)-7-oxoheptyl)-1,2,5-thiadiazole-3-carboxamide], the 50% inhibitory concentration (IC50) on human HDAC1 was 1 to 5 µM. In experiment [1], this compound returned an EC50 greater than 5 µM.
On to `CNC(=O)CCCCC[C@H](NC(=O)c1cnsc1)c1ncc(-c2ccc3ccncc3c2)[nH]1` [Entry 46, (S)-N-(1-(5-(isoquinolin-7-yl)-1H-imidazol-2-yl)-7-(methylamino)-7-oxo-heptyl)isothiazole-4-carboxamide], for which the IC50 at human HDAC1 was less than 1 µM. The compound further registered an EC50 in experiment [1] of less than 1 µM.
As for `CNC(=O)CCCCC[C@H](NC(=O)c1cscn1)c1ncc(-c2ccc3ccncc3c2)[nH]1` [Entry 47, (S)-N-(1-(5-(isoquinolin-7-yl)-1H-imidazol-2-yl)-7-(methylamino)-7-oxoheptyl)thiazole-4-carboxamide], the IC50 at human HDAC1 is greater than 5 µM. This compound returned an EC50 in experiment [1] of 1 to 5 µM.
For `CNC(=O)CCCCC[C@H](NC(=O)C1CC1c1ccncc1)c1ncc(-c2ccc3ccncc3c2)[nH]1` (stereo partly drawn) [Entry 48, N-((S)-1-(5-(isoquinolin-7-yl)-1H-imidazol-2-yl)-7-(methylamino)-7-oxoheptyl)-2-(pyridin-4-yl)cyclopropane-carboxamide], the IC50 at human HDAC1 fell in the range of 1 to 5 µM. Moreover, in experiment [1], the EC50 lay in the range of 1 to 5 µM.
With `CNC(=O)CCCCC[C@H](NC(=O)c1cnc(C)s1)c1ncc(-c2ccc3ccncc3c2)[nH]1` [Entry 49, (S)-N-(1-(5-(isoquinolin-7-yl)-1H-imidazol-2-yl)-7-(methylamino)-7-oxoheptyl)-2-methylthiazole-5-carboxamide], the half-maximal inhibitory concentration (IC50) at human HDAC1 is less than 1 µM. Also, the 50% effective concentration (EC50) in experiment [1] was less than 1 µM.
For the compound `CNC(=O)CCCCC[C@H](NC(=O)c1cnn(C(C)C)c1)c1ncc(-c2ccc(-c3ccn(C)n3)cc2)[nH]1` [Entry 50, (S)-1-isopropyl-N-(1-(5-(4-(1-methyl-1H-pyrazol-3-yl)phenyl)-1H-imidazol-2-yl)-7-(methylamino)-7-oxoheptyl)-1H-pyrazole-4-carboxamide], on human HDAC1, the IC50 was in the range of 1 to 5 µM. This compound registered an EC50 in experiment [1] of less than 1 µM.
`CNC(=O)CCCCC[C@H](NC(=O)c1cncs1)c1ncc(-c2cc3ccccc3s2)[nH]1` [Entry 51, (S)-N-(1-(5-(benzo[b]thiophen-2-yl)-1H-imidazol-2-yl)-7-(methylamino)-7-oxoheptyl)thiazole-5-carboxamide]: at human HDAC1, the IC50 lay in the range of 1 to 5 µM. The EC50 in experiment [1] lay within 1 to 5 µM.
Consider `CNC(=O)CCCCC[C@H](NC(=O)c1cncs1)c1ncc(-c2ccc(C#N)cc2)[nH]1` [Entry 52, (S)-N-(1-(5-(4-cyanophenyl)-1H-imidazol-2-yl)-7-(methylamino)-7-oxoheptyl)thiazole-5-carboxamide], for which, at human HDAC1, the IC50 is 1 to 5 µM. The EC50 in experiment [1] is greater than 5 µM.
For the compound `CNC(=O)CCCCC[C@H](NC(=O)c1cncs1)c1ncc(-c2ccc(NC(C)=O)cc2)[nH]1` [Entry 53, (S)-N-(1-(5-(4-acetamidophenyl)-1H-imidazol-2-yl)-7-(methylamino)-7-oxoheptyl)thiazole-5-carboxamide], on human HDAC1, the IC50 is 1 to 5 µM. Also, in experiment [1], the EC50 is 1 to 5 µM.
For the compound `CNC(=O)CCCCC[C@H](NC(=O)c1cncs1)c1ncc(-c2cc3cc(OC)ccc3[nH]2)[nH]1` [Entry 54, (S)-N-(1-(5-(5-methoxy-1H-indol-2-yl)-1H-imidazol-2-yl)-7-(methylamino)-7-oxoheptyl)thiazole-5-carboxamide], on human HDAC1, the IC50 is 1 to 5 µM. The half-maximal effective concentration (EC50) in experiment [1] is 1 to 5 µM.
Take `COc1nc2ccccc2cc1-c1cnc([C@H](CCCCCC(N)=O)OC(=O)C23CCN(CC2)CC3)o1` [Entry 55]: the IC50 on human HDAC1 was less than 1 µM. Besides, in experiment [1], the EC50 lay in the range of 1 to 5 µM.
For `CNC(=O)CCCCC[C@H](OC(=O)C12CCN(CC1)CC2)c1ncc(-c2cc3ccccc3nc2OC)o1` [Entry 56] the same measures were less than 1 µM and 1 to 5 µM.
Consider `CNC(=O)CCCCC[C@H](NC(=O)c1cncs1)c1ncc(-c2ccc(Cl)cc2OC)[nH]1` [Entry 57, (S)-N-(1-(5-(4-chloro-2-methoxyphenyl)-1H-imidazol-2-yl)-7-(methylamino)-7-oxoheptyl)thiazole-5-carboxamide], for which the IC50 on human HDAC1 fell in the range of 1 to 5 µM. Further, the EC50 in experiment [1] lay within 1 to 5 µM.
With `CNC(=O)CCCCC[C@H](NC(=O)Cn1ccnn1)c1ncc(-c2ccc3ccncc3c2)[nH]1` [Entry 58, (S)-7-(2-(1H-1,2,3-triazol-1-yl)acetamido)-7-(5-(isoquinolin-7-yl)-1H-imidazol-2-yl)-N-methylheptanamide], the IC50 at human HDAC1 lay within 1 to 5 µM. For the same compound, the EC50 in experiment [1] was in the range of 1 to 5 µM.
Take `CNC(=O)CCCCC[C@H](NC(=O)c1cncs1)c1ncc(-c2ccc(-c3cc(C)[nH]n3)cc2)[nH]1` [Entry 59, (S)-N-(1-(5-(4-(5-methyl-1H-pyrazol-3-yl)phenyl)-1H-imidazol-2-yl)-7-(methylamino)-7-oxoheptyl)thiazole-5-carboxamide]: at human HDAC1, the IC50 fell in the range of 1 to 5 µM. The EC50 in experiment [1] was in the range of 1 to 5 µM.
Regarding `CNC(=O)CCCCC[C@H](NC(=O)c1cncs1)c1ncc(-c2ccc(CN)cc2)[nH]1` [Entry 60, (S)-N-(1-(5-(4-(amino-methyl)phenyl)-1H-imidazol-2-yl)-7-(methylamino)-7-oxoheptyl)thiazole-5-carboxamide], the IC50 at human HDAC1 was in the range of 1 to 5 µM. In experiment [1], this compound came in with an EC50 greater than 5 µM.
